Test results: BindingDB's records for doi:10.1016/j.bmc.2018.05.045 (University of Arizona, 2018)
Where a SMILES comes first, the peptide text is derived from it.

Assays:
[1] = biological target: T1, Kappa-type opioid receptor (Homo sapiens, UniProt P41145); test: Agonist activity at KOR (unknown origin) expressed in HEK cells assessed as reduction in cAMP accumulation by split luciferase assay
[2] = biological target: T1, Kappa-type opioid receptor; test: Displacement of [3H]U69593 from KOR (unknown origin) expressed in HEK cells

T1 sequence (P41145 whole entry): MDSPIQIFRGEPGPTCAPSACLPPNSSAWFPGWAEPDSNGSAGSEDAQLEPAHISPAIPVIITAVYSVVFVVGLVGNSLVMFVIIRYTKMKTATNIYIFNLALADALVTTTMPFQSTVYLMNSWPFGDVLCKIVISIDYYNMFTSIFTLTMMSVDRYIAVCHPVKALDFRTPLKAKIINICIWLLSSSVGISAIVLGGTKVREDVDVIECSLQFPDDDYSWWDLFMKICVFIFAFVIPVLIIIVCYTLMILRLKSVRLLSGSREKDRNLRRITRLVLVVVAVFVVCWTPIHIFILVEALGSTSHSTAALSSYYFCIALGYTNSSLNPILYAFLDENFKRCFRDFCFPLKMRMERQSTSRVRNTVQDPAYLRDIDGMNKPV

In the case of `CC1(C)SSC(C)(C)[C@H](NC(=O)[C@@H](N)Cc2ccc(O)cc2)C(=O)NCC(=O)N[C@@H](Cc2ccccc2)C(=O)N2CCN(CC2)C(=O)[C@H](Cc2ccccc2)NC(=O)CNC(=O)[C@H]1NC(=O)[C@@H](N)Cc1ccc(O)cc1` (HELM PEPTIDE1{Y.[Pen].G.F}|PEPTIDE2{Y.[Pen].G.F}|CHEM1{[C1CN([*:2])CCN1[*:1]]}$PEPTIDE1,PEPTIDE2,2:R3-2:R3|PEPTIDE1,CHEM1,4:R2-1:R1|PEPTIDE2,CHEM1,4:R2-1:R2$$$V2.0), the EC50 [1] is reported as 269 nM and the Ki [2] is reported as 5.6 nM.
